Laboratory results reported in ChEMBL document CHEMBL4387728, “Synthetic glycopeptides reveal specific binding pattern and conformational change at O-mannosylated position of α-dystroglycan by POMGnT1 catalyzed GlcNAc modification” (Bioorg Med Chem, 2019).
Calls of active or inactive are those of the source. No cut-off for these calls is given here. Peptide text beside a SMILES is read from it. * marks the point of attachment. Hexanoyl(5-oxo) = CC(=O)CCCC(=O)*

Tests used:
Triticum aestivum = assay: Binding affinity to biotin-labeled Wheat germ agglutinin in pH 7.4 Tris buffer by fluorescence microarray method
[1] = target: Lactotransferrin (Homo sapiens) (UniProt P02788); assay: Binding affinity to biotin-labeled lactoferrin (unknown origin) at 10 ug/ml in pH 5.6 MES buffer by fluorescence microarray method
Sequence of Lactotransferrin (Homo sapiens) (P02788 whole entry): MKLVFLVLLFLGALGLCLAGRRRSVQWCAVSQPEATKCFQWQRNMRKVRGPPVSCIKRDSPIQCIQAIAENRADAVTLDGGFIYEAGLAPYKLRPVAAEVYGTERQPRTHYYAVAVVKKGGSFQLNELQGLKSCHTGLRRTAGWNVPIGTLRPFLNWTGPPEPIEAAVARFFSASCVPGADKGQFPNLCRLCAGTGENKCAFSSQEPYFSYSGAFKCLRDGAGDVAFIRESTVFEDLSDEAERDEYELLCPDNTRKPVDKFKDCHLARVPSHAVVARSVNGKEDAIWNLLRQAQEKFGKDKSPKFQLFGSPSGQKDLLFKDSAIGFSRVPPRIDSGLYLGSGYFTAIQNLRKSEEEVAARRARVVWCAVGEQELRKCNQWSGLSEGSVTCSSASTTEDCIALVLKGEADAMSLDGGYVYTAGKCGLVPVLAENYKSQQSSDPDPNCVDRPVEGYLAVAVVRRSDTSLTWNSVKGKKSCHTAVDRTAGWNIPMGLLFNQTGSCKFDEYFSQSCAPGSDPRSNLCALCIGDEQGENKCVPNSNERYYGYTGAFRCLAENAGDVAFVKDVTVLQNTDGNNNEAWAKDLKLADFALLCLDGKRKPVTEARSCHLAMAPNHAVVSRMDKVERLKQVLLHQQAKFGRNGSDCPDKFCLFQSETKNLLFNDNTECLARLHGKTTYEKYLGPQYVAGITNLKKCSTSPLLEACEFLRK

Erythrina crista-galli = assay: Binding affinity to biotin-labeled Erythrina crista-galli agglutinin in pH 7.4 Tris buffer by fluorescence microarray method
Datura stramonium = assay: Binding affinity to biotin-labeled Datura stramonium agglutinin in pH 7.4 Tris buffer by fluorescence microarray method
Homo sapiens [2] = species on record: Homo sapiens; assay: Binding affinity to biotin-labeled human recombinant laminin-2 at 10 ug/ml in 5.6 MES buffer by fluorescence microarray method
[3] = Binding affinity to biotin-labeled Agaricus bisporus agglutinin in pH 7.4 Tris buffer by fluorescence microarray method
Arachis hypogaea = assay: Binding affinity to biotin-labeled Arachis hypogaea agglutinin in pH 7.4 Tris buffer by fluorescence microarray method
Maackia amurensis = assay: Binding affinity to biotin-labeled Maackia amurensis agglutinin in pH 7.4 Tris buffer by fluorescence microarray method
[4] = target: Laminin subunit alpha-1 (Homo sapiens) (UniProt P25391); assay: Binding affinity to biotin-labeled human recombinant laminin-1 at 10 ug/ml in pH 7.4 Tris buffer by fluorescence microarray method
Sequence of Laminin subunit alpha-1 (Homo sapiens) (P25391 whole entry): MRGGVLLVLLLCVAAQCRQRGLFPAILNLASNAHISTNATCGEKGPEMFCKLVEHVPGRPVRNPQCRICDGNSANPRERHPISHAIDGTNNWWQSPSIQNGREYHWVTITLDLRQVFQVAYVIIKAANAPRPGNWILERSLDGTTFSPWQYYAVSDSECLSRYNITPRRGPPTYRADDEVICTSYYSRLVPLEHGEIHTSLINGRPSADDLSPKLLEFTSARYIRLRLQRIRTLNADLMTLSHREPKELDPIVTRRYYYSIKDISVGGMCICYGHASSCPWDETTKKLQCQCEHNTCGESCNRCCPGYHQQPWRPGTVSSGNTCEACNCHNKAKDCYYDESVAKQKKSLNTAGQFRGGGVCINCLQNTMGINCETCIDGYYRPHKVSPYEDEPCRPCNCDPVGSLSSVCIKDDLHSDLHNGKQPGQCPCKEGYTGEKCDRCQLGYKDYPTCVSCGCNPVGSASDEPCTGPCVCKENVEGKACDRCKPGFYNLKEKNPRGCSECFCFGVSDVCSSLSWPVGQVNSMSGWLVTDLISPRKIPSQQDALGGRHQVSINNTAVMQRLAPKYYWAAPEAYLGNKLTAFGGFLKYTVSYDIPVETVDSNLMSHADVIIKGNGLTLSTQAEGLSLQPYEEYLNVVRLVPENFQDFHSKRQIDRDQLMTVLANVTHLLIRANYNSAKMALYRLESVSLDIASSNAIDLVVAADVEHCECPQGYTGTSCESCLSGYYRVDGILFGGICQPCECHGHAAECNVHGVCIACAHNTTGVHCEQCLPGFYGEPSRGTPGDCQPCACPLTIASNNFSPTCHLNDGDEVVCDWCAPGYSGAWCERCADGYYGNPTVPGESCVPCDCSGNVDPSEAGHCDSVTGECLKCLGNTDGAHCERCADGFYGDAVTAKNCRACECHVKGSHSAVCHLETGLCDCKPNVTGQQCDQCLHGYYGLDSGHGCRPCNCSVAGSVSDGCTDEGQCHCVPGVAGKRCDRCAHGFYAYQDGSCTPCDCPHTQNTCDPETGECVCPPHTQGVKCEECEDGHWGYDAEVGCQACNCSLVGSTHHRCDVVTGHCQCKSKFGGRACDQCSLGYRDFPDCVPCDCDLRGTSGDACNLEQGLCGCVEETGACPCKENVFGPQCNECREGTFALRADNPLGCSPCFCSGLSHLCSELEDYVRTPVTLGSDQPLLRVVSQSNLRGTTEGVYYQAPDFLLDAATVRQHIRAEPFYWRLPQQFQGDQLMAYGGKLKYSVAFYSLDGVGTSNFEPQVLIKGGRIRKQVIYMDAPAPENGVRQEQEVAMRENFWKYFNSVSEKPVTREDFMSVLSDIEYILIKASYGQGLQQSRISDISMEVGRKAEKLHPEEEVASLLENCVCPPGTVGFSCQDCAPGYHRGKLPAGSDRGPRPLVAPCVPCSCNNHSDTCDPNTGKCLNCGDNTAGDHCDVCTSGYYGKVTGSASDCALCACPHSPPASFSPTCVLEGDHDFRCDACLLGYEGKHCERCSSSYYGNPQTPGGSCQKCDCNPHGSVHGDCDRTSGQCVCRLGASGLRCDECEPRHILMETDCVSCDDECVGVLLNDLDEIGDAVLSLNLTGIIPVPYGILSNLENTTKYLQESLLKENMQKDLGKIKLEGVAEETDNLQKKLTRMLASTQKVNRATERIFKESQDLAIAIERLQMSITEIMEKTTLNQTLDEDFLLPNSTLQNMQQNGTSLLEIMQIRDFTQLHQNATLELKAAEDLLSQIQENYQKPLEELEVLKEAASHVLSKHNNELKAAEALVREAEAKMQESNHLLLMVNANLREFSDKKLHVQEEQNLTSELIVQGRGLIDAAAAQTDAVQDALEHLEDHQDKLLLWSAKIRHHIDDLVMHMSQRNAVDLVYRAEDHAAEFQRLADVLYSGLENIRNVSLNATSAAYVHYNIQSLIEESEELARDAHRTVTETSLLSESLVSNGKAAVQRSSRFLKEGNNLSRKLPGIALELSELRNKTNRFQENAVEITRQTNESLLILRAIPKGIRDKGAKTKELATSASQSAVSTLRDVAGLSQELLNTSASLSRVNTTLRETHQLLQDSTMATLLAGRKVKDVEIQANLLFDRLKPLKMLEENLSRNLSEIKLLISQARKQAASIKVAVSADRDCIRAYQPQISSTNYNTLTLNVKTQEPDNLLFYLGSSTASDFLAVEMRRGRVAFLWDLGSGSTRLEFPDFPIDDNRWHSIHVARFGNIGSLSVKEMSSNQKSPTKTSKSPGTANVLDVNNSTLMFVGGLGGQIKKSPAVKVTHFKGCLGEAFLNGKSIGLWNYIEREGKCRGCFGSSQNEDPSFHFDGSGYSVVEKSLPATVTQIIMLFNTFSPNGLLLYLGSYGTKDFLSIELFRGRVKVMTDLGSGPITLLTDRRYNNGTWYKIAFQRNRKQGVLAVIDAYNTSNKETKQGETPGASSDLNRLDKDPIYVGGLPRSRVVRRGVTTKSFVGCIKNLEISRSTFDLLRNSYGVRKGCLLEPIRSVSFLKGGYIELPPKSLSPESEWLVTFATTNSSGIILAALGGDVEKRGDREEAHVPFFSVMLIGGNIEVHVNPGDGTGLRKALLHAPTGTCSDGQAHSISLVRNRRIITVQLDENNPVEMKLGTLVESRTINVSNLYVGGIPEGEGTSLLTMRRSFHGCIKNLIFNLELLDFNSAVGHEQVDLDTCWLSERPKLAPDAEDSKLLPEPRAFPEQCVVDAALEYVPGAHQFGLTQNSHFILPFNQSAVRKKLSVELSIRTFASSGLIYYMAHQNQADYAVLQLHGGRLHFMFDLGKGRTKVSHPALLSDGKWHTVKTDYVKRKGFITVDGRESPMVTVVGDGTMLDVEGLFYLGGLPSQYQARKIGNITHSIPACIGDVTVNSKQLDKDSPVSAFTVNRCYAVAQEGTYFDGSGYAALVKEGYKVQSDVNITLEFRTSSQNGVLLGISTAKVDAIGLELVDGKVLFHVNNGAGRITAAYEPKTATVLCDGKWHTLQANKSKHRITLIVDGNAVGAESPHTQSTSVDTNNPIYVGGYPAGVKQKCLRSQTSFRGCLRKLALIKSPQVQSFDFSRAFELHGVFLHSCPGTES

[5] = system: Sambucus racemosa subsp. sieboldiana; assay: Binding affinity to biotin-labeled Sambucus sieboldiana agglutinin in pH 7.4 Tris buffer by fluorescence microarray method
[6] = target: Lactotransferrin (Homo sapiens) (UniProt P02788); assay: Binding affinity to biotin-labeled lactoferrin (unknown origin) at 10 ug/ml in pH 7.4 Tris buffer by fluorescence microarray method
Canavalia ensiformis = assay: Binding affinity to biotin-labeled Canavalia ensiformis agglutinin in pH 7.4 Tris buffer by fluorescence microarray method
[7] = target: Laminin subunit alpha-1 (Homo sapiens) (UniProt P25391); assay: Binding affinity to biotin-labeled human recombinant laminin-1 at 10 ug/ml in pH 5.6 MES buffer by fluorescence microarray method
Homo sapiens [8] = species on record: Homo sapiens; assay: Binding affinity to biotin-labeled human recombinant laminin-2 at 10 ug/ml in pH 7.4 Tris buffer by fluorescence microarray method

Activity (Triticum aestivum): Active | Activity [1]: Active | Activity (Erythrina crista-galli): Active | Activity (Datura stramonium): inactive | Activity (Homo sapiens [2]): Active | Activity [3]: Active | Activity (Arachis hypogaea): Active | Activity (Maackia amurensis): inactive | Activity [4]: Active | Activity [5]: Active | Activity [6]: inactive | Activity (Canavalia ensiformis): Active | Activity [7]: Active | Activity (Homo sapiens [8]): inactive
SMILES: CC[C@H](C)[C@H](NC(=O)[C@H](C)NC(=O)CNC(=O)[C@H](CCCNC(=N)N)NC(=O)[C@@H](NC(=O)CCCC(C)=O)[C@@H](C)O)C(=O)N[C@H](C(=O)N[C@@H](CCC(N)=O)C(=O)N[C@H](C(=O)N1CCC[C@H]1C(=O)N[C@H](C(=O)N[C@@H](CC(C)C)C(=O)NCC(=O)N1CCC[C@H]1C(=O)N[C@H](C(=O)N[C@@H](CCC(N)=O)C(=O)N1CCC[C@H]1C(=O)N[C@H](C(=O)N[C@@H](CCCNC(=N)N)C(=O)N[C@H](C(N)=O)C(C)C)[C@@H](C)O)[C@@H](C)CC)[C@@H](C)O)[C@@H](C)O)[C@@H](C)CC ({Hexanoyl(5-oxo)}-TRGAIIQTPTLGPIQPTRV-NH2)
